# Assay results reported in PMC11058299, “Synthesis, molecular docking evaluation for LOX and COX-2 inhibition and determination of in-vivo analgesic potentials of aurone derivatives” (Heliyon, 2024).
# Entries after “also recorded” stand apart in the source; their conditions may differ.
# How the values were obtained:
# COX-2 enzyme = target: T1, COX-2 enzyme (Homo sapiens, UniProt P35354); assay: COX-2 inhibitory assay; format: biochemical; conditions: Table 2
# T1 construct: purchased Sigma Aldrich
# T1 sequence (P35354 18-604): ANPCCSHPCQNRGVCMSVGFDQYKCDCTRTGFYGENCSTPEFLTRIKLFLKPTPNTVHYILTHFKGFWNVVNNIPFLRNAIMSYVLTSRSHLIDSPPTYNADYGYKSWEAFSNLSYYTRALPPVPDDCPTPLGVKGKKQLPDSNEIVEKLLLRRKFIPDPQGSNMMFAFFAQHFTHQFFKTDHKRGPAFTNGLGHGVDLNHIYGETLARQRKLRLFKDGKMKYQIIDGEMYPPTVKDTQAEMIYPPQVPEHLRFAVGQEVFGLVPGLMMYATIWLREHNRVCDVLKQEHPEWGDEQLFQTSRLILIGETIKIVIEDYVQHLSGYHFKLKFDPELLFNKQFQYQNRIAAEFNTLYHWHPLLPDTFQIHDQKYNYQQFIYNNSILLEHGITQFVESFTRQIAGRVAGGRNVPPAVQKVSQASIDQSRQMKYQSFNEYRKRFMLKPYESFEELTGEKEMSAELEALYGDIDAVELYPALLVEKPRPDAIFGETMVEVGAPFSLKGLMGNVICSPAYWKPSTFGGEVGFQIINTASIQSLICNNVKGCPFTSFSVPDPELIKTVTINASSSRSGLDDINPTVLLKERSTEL
# Protocol: COX-2 inhibition was measured spectrophotometrically at 550 nm after the formation of oxidized form of tetramethlenephenylenediamine (TMPD). This assay was conducted according to previously reported procedure. […] The reaction contained 10 μL COX-2 enzymes (100 μM in diluted in DMSO), 10 μL haem of 2.2 mM diluted in DMSO, tris buffers (pH. 8, 100 μl) and drug samples according to the above stated procedure. The reaction was started by the addition of freshly prepared TMPD and methanolic arachidonic acid (AA). Celecoxib is used as a reference drug in this assay. After 5 min of incubation at 25–28C, the absorbance was measured at 550 nm and inhibition was calculated.
# LOX enzyme = target: T2, LOX enzyme (Glycine max, UniProt P08170); assay: LOX enzyme kinetic assay (Lineweaver-Burk); format: biochemical; conditions: Lineweaver-Burk plot
# T2 construct: purchased Cayman Chemicals
# T2 sequence (P08170 1-839): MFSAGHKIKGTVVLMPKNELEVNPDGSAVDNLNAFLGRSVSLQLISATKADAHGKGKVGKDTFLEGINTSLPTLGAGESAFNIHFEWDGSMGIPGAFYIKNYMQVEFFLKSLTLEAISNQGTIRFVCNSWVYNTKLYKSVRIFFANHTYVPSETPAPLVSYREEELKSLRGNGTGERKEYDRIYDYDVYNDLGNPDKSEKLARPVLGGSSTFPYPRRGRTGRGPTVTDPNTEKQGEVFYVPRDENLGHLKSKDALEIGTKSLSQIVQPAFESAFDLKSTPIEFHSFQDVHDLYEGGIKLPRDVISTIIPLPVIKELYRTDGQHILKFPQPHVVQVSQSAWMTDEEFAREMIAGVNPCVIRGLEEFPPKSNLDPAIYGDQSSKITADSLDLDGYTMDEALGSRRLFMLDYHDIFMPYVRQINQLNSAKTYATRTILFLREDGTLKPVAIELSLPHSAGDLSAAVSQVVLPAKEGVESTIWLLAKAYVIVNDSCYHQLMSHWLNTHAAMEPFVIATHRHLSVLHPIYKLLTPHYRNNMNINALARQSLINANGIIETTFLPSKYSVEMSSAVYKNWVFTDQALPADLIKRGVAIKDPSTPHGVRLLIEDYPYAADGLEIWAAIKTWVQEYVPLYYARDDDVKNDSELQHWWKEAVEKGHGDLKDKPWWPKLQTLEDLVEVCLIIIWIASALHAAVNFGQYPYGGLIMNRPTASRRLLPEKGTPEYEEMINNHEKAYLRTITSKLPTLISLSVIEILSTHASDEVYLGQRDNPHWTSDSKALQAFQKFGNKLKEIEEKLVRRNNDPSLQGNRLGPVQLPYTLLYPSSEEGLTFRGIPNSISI
# Protocol: The type of enzyme inhibition by compound (WE-4) was determined using the continuous spectrophotometric rate determination method. Various concentrations of the substrate (AA) were prepared in a Tween-20 solution within a 200 mM borate buffer at pH 9.0. A fixed concentration of LOX enzyme (10,000 units/ml) was prepared in a separate 200 mM borate buffer at pH 9.0. The enzyme kinetics were analyzed by employing the Lineweaver and Burk method while examining the substrate at different concentrations in the presence or absence of compound (WE-4).
# [1] = tested on: opioid receptors (tail flicking latency); assay: Assessment of opioid mechanism via tail immersion test with Naloxone; format: in vivo; conditions: mice; for Latency response 30 min: control 3.14 ± 0.31; for Latency response 60 min: control 3.17 ± 0.41; for Latency response 120 min: control 3.20 ± 0.29; for Latency response 90 min: control 3.31 ± 0.44
# Protocol: The cut-off time was set at 25 s, and the time taken for the mice to flick their tails out of the water was recorded at 30, 60, 90, and 120-min intervals. An increase in the time of tail immersion was compared to the control group to determine the analgesic effect of the tested drugs. The percentage of inhibition was calculated at the time interval showing the highest effect.
# To verify the involvement of the opioid mechanism, following the approach outlined in the published study. […] These derivatives were assessed for their potential opioid activity within the control, sample compounds and standard groups using the tail immersion test.
# [2] = tested on: acetic acid induced writhing; assay: Acetic acid induced writhing test; format: in vivo; conditions: mice; for number of writhing: mean ± SEM, control 61.22 ± 3.90
# Protocol: The animals were divided into various groups I-XVI consisting of 8 experimental animals for control, sample compounds (WE-1 to WE-7) and standard. Group I: Control, Group II-XV: WE-1 to WE-7 (sample compounds) at dose of 10 mg/kg and 20 mg/kg and Group XVI: Standard. The control (Group I) was given normal saline. Group II-XV received 10 mg/kg and 20 mg/kg of test sample (WE-1 to WE-7). […] The writhing test, following a previously established method, was conducted to assess the analgesic potential of the aurone derivatives. The mice were orally administered samples compounds (WE-1 to WE-7)and standard (Diclofenac sodium 10 mg/kg) 1 h before intraperitoneal administration 10 ml/kg of 1 % acetic acid. Five minutes after the acetic acid administration, the numbers of writhing episodes were counted for 10 min, and the percentage of inhibition was subsequently calculated.
compound,measurement,setting,value
"COc1ccc(C=C2Oc3ccccc3C2=O)cc1OC [WE-4, 2-(3,4-dimethoxybenzylidene)benzofuran-3(2H)-one]",IC50,COX-2 enzyme,0.22 µM
same,type of enzyme inhibition,LOX enzyme,non-competitive inhibitor; also recorded: non-competitive inhibition
same,Latency response 30 min,[1]; 10 mg/kg + Naloxone 2 mg/kg,3.60 ± 0.61
same,Latency response 60 min,[1]; 10 mg/kg + Naloxone 2 mg/kg,4.49 ± 0.43
same,Latency response 120 min,[1]; 10 mg/kg + Naloxone 2 mg/kg,3.80 ± 0.49
same,Latency response 90 min,[1]; 10 mg/kg + Naloxone 2 mg/kg,5.30 ± 0.48
same,Latency response 30 min,[1]; 20 mg/kg + Naloxone 2 mg/kg,3.41 ± 0.48
same,Latency response 60 min,[1]; 20 mg/kg + Naloxone 2 mg/kg,4.67 ± 0.60
same,Latency response 120 min,[1]; 20 mg/kg + Naloxone 2 mg/kg,4.03 ± 0.57
same,Latency response 90 min,[1]; 20 mg/kg + Naloxone 2 mg/kg,4.80 ± 0.61
same,percent analgesic effect (inhibition of writhing),[2]; 10 mg/kg oral,71.30%
same,number of writhing,[2]; 10 mg/kg oral,17.57 ± 1.94
same,percent analgesic effect (inhibition of writhing),[2]; 20 mg/kg oral,77.60%
same,number of writhing,[2]; 20 mg/kg oral,13.71 ± 1.77
